Source: patent US6472165B1, “Modulatory binding site in potassium channels for screening and finding new active ingredients” (Arzneimittelwerk Dresden GmbH, priority 1999, dated 2002)

Assays:
[1] = biological target: M channel (=KCNQ2+KCNQ3) (Homo sapiens, UniProt O43525+O43526); details: literature, Wang et al.; cited from earlier work
[2] = biological target: KCNQ1 channel (Homo sapiens, UniProt P51787); details: literature, Wang et al.; cited from earlier work
[3] = biological target: T1, Kv4.3 (Homo sapiens, UniProt Q9UK17); details: literature, Wang et al.; cited from earlier work
T1 sequence (Q9UK17 1-655): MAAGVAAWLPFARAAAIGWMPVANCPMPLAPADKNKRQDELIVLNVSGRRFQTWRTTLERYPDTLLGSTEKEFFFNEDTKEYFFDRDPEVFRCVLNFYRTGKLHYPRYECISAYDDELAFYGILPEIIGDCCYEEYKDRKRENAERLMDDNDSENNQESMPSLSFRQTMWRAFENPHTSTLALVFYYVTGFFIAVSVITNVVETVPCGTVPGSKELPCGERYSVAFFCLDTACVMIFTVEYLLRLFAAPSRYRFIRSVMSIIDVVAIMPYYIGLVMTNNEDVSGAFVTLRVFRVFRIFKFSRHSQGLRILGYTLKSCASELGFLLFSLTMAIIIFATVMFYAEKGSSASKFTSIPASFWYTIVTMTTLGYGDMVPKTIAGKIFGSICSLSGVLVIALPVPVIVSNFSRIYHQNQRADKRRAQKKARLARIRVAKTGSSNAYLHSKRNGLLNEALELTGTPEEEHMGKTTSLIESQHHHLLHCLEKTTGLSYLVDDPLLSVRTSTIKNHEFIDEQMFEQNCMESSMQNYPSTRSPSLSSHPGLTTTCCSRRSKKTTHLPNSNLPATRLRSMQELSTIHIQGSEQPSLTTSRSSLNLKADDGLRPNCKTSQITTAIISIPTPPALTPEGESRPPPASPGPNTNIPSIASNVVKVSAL

[4] = biological target: T2, eag1 (Homo sapiens, UniProt O95259); details: literature, Wang et al.; cited from earlier work
T2 sequence (O95259 1-989): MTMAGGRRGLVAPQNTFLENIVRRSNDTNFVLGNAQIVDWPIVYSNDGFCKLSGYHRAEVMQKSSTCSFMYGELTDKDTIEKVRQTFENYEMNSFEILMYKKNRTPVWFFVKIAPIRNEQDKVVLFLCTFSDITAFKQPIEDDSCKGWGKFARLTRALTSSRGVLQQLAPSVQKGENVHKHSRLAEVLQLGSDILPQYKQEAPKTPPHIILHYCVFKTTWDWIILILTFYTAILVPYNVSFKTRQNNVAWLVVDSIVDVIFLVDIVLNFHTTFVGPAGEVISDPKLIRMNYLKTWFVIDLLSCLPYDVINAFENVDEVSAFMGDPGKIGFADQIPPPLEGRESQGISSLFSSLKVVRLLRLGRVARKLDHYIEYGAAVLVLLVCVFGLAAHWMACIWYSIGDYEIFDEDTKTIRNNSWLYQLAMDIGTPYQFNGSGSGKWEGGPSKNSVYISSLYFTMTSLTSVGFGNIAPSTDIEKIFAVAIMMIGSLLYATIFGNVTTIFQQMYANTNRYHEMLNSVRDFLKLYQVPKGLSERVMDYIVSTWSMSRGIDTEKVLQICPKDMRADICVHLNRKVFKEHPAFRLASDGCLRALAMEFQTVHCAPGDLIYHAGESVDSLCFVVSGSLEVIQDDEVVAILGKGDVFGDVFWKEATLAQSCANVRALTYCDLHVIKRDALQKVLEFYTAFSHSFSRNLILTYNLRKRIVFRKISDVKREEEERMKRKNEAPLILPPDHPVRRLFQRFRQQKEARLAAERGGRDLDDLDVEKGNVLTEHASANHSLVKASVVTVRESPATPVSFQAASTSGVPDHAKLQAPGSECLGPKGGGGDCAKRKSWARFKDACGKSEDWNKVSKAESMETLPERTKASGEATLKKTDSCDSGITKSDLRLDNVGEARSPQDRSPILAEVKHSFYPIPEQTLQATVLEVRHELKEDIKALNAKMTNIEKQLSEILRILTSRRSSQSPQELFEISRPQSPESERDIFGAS

[5] = biological target: erg1 (Homo sapiens, UniProt Q12809); details: literature, Wang et al.; cited from earlier work
Chain of erg1 (Q12809 whole entry): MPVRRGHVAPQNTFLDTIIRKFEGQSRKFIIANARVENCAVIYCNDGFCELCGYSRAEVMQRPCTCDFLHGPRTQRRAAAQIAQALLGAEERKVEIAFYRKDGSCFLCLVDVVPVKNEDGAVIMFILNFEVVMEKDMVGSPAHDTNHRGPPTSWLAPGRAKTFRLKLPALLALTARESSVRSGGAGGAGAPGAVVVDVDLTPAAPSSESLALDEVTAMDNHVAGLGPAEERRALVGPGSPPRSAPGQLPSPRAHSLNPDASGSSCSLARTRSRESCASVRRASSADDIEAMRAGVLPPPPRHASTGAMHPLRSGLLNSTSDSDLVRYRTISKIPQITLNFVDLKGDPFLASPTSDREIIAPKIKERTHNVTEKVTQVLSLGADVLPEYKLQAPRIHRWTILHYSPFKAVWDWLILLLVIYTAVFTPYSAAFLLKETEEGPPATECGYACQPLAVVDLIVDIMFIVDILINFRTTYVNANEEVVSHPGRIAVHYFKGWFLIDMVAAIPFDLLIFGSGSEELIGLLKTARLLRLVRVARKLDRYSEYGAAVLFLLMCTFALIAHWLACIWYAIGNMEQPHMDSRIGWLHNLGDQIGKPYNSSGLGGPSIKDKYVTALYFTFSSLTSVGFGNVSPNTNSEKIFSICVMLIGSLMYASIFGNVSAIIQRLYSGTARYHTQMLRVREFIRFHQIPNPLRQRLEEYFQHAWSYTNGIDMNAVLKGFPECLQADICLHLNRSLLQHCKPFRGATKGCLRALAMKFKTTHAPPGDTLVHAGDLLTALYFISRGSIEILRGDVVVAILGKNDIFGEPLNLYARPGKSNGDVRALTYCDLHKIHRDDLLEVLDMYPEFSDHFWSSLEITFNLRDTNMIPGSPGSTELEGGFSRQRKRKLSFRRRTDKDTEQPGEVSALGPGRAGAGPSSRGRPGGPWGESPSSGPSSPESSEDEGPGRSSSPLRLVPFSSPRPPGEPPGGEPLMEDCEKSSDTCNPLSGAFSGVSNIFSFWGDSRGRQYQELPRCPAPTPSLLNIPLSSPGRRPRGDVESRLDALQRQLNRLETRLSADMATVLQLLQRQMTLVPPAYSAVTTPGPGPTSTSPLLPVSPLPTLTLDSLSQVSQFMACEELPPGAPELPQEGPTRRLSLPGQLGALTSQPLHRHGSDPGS

[6] = biological target: T3, erg3 (Homo sapiens, UniProt Q9NS40); details: literature, Wang et al.; cited from earlier work
T3 sequence (Q9NS40 1-1196): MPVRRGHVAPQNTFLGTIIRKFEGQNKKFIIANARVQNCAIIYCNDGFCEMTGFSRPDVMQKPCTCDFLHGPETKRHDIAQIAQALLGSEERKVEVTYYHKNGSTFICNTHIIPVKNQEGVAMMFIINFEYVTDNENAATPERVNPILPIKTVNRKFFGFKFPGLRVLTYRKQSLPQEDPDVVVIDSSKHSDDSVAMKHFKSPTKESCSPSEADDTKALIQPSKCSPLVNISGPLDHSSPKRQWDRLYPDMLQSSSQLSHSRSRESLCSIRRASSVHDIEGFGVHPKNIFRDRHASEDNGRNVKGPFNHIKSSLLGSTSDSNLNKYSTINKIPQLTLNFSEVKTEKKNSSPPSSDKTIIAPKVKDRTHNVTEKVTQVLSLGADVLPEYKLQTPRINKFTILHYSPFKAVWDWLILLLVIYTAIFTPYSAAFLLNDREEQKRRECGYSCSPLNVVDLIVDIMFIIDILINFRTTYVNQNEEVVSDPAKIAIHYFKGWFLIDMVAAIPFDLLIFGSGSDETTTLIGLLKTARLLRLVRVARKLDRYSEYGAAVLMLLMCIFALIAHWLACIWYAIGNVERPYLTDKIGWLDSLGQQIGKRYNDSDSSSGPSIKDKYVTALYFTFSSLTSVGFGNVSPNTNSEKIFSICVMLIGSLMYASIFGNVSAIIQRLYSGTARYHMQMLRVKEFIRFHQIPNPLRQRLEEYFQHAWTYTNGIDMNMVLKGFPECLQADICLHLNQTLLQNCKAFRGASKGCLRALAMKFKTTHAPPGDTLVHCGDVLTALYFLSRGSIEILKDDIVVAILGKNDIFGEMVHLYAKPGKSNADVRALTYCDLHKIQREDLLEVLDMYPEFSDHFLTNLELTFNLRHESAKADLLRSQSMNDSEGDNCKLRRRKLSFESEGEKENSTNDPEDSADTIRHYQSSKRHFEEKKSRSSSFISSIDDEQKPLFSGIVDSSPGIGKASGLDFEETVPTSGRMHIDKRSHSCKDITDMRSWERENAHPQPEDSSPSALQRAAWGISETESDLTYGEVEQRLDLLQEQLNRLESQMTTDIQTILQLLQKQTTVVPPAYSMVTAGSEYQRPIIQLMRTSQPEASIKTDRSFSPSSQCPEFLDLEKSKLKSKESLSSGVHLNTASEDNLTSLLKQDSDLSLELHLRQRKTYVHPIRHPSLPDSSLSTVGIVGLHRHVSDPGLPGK

[7] = system: elk1; details: literature, Wang et al.; cited from earlier work
[8] = biological target: Kv1.2 (Homo sapiens, UniProt P16389); details: literature, Wang et al.; cited from earlier work
Chain of Kv1.2 (P16389 whole entry): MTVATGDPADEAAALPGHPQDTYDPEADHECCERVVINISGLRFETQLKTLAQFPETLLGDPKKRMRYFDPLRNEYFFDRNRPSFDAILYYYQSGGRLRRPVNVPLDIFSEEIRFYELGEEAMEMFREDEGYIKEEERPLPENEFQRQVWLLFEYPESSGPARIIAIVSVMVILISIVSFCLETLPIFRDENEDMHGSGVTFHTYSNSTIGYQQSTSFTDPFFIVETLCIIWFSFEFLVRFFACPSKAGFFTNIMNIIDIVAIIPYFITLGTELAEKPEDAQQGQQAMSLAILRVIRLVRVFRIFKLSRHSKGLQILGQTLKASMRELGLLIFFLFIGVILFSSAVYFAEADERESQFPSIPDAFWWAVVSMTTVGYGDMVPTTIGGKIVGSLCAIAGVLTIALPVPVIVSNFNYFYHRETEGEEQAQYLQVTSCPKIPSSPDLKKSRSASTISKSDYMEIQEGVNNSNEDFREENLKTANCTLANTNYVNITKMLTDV

[9] = biological target: T4, r-erg1 (Rattus norvegicus, UniProt O08962); assay: Effect of retigabine on cloned potassium channels, patch clamp; format: cell-based; details: r-erg1, CHO cells
T4 construct: expressed in transfected cells; host or cells: CHO cells (liposome cDNA transfection)
T4 sequence (O08962 1-1163): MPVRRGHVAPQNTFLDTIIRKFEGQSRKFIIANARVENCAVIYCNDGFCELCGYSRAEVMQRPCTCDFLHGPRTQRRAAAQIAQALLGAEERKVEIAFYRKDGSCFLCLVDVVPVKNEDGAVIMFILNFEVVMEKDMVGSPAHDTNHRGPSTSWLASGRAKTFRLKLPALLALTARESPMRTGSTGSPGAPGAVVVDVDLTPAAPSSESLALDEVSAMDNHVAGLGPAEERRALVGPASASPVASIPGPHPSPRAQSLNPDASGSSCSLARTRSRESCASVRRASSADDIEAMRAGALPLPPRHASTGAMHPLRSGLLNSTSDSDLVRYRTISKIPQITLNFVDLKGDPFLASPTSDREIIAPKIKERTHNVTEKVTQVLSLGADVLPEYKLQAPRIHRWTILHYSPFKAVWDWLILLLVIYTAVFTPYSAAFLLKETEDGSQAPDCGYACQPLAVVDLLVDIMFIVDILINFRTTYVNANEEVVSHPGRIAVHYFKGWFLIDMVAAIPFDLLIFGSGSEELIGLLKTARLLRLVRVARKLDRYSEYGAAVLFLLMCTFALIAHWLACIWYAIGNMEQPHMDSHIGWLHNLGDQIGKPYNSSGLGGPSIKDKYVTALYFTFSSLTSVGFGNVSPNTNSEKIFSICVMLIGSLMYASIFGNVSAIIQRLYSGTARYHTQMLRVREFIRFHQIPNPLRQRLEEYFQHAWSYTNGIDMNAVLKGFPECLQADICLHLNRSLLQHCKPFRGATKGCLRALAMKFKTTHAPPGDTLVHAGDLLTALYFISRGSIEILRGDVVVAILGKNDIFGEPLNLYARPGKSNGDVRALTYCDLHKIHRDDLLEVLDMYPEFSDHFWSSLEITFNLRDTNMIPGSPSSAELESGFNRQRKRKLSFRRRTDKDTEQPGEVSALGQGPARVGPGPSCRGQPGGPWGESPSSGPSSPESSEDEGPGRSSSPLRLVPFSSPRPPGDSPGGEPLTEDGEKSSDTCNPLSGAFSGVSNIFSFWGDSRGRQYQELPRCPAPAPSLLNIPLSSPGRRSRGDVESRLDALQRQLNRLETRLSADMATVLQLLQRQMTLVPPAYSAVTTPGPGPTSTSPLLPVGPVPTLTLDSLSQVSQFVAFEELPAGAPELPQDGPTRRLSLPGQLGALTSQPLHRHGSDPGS
Description: For the experiments with xenopus oocytes, the experimental amounts known to be successful for transfections i.e. 500 pg to 37 ng, of hereditary information (cRNA) for the channel to be investigated, which is known from the literature, present as clone and replicated by means of a polymerase chain reaction, was applied by pressure injection into the egg cells. After this treatment, the oocytes were placed in a nutrient medium and kept alive. After one week, the egg cells were brought individually into a recording chamber and, using the two-electrode voltage clamp method, investigated electrophysiologically. For this purpose, the egg cells, starting out from a holding potential of −80 mV, were hyperpolarized and depolarized for, in each case, 2 seconds, in 10 mV steps to different membrane potentials between −130 and +30 mV and the resulting membrane current was measured. These experiments were carried out in the presence of a control solution as well as of 1, 10 and 100 μM of retigabine and the current voltage curves obtained were compared. […] In addition, in accordance with a method already described (Rundfeldt, 1999b), retigabine was added at a concentration of 10 μM to cells, which were slightly depolarized (−60 or −50 mV), and the current induced thereby was quantified. The latter method was employed in order to quantify the currents shown in the Table and induced by retigabine. […]

Structure (SMILES) | Effect on the M channel [1] | Effect on KCNQ1, with affinity similar to that for the M channel [2] | Effect on Kv4.3, with affinity similar to that for the M channel [3] | Effect on eag1, with affinity similar to that for the M channel [4] | Effect on erg1, with affinity similar to that for the M channel [5] | Effect on erg3, with affinity similar to that for the M channel [6] | Effect on elk1, with affinity similar to that for the M channel [7] | Effect on Kv1.2, with affinity similar to that for the M channel [8] | Effect of 10 μM of Retigabine [9]
O=C1N(c2ccccc2)c2ccccc2C1(Cc1ccncc1)Cc1ccncc1 [linopirdine] | blocks | blocked | blocked | blocked | blocked | blocked | blocked | blocked | 
CCOC(=O)Nc1ccc(NCc2ccc(F)cc2)cc1N [retigabine, 2-amino-4-(4-fluorobenzylamino)-1-ethoxycarbonyl-aminobenzene] |  |  |  |  |  |  |  |  | No effect
O=C1c2ccccc2C(Cc2ccncc2)(Cc2ccncc2)c2ccccc21 [XE991] | block | inhibits | inhibits |  |  |  |  |  | 
